Values quoted from earlier work as cited in patent publication US9433581B2, “Poly(vinyl benzoate) nanoparticles for molecular delivery” (University of South Florida, priority 2010, dated 2016).

Conditions: octanol/water, reported in the literature

Row | Compound | Log P
1 | 5(6)-carboxyfluorescein | 5.43
2 | CCN(CC)c1ccc2cc(-c3nc4ccccc4s3)c(=O)oc2c1 [Coumarin-6, coumarin-6] | −3.45
